Measured values: patent US11116731B2, “Hydrogen sulfide and/or nitrite in the treatment and prevention of atrial fibrillation” (Board of Supervisors of Louisiana State University and …, priority 2017, dated 2021)

Tested on: CSE knockout mice
Test: Inducible persistent AF (AF lasting more than 90 seconds after induction) in CSE knockout mice
Assay type: in vivo
Settings: for risk of inducible persistent AF: 200 ug/kg retro-orbitally (i.e. I.V.) for three days
Source text: Homocysteine induced reactive oxygen species reduces the ability of eNOS to properly function in generating nitric oxide (NO).
FIGS. 11 to 12B show mouse Mouse Electrophysiology and AF induction in mice and persistent AF and short run or non-persistent AF.

## [N]=O [NO, nitric oxide]
Female CSE KO mice
  persistent AF (FIGS. 26A, 26B, 34A to 35B): Reduced

## C=CCSSSCC=C [DATS, diallyl trisulfide]
CSE knock out male mice
  risk of inducible persistent AF: reduced to near wild type levels
Female CSE knock out mice
  risk of inducible persistent AF: no noticeable risk reduction

## O=NO [sodium nitrite]
Female CSE KO mice
  persistent AF (FIGS. 26A, 26B, 34A to 35B): dramatically reduces
Female CSE KO mice, nitrite treated vs PBS
  AF (electro cardio rhythms, FIGS. 25A and 25B): reduced
Female CSE knockout mice, 165 ug/kg intraperitoneal for 3 days
  incidence of inducible persistent AF: decrease
